# Assay results published in patent US8916607B2, “Use of piperphentonamine or salts thereof in manufacture of medicaments for treating brain diseases” (Guangzhou Municipal Zhongwei Biotechnology Limited Company, priority 2009, dated 2014).
# Marks after values point to notes of the source that are not given here.
# What was measured:
# [1] = system: cerebral ischemia/reperfusion injury in mice; assay: focal cerebral ischemia reperfusion injury model in mice (suture method), TTC infarction area; assay type: in vivo
# Protocol: Focal cerebral ischemia reperfusion injury model is made in mice by using suture method, being ischemia for 2 h, then reperfusing for 24 h, and it proves that piperphentonamine hydrochloride has protective effect on ischemia-reperfusion cerebral injury.
# Mouse is anesthetized by injecting 10% chloral hydrate (350 mg/kg) in intraperitoneal, being intravenously administered 1 mg/kg, 5 mg/kg piperphentonamine hydrochloride or 20 u/kg coenzyme A, (COA), making the cerebral artery ischemia like as the method of example 6. Pulling out nylon thread from the internal carotid artery after the operation in 2 hours, until the end of the nylon thread is at bifurcation of the common carotid artery. Reperfusing for 24 hours. Except for not inserting a thread, the rest of steps for the false operation group are same as the above-mentioned. After reperfusion for 24 h, decapitating and taking the brain of survived mice, rapidly putting in −20° C. freezer for 5 min, then removing, quickly cutting coronal slices of 2.0 mm thickness from forward to back on the operating table, putting the slices in phosphate buffer solution with 1% TTC immediately, incubating for 30 min in avoiding light at room temperature. Flip brain slices to make them touch staining solution uniformly every 10 minute, and scanning and observing the dyeing results.
# The local cerebral ischemia model of mice was established by using thread bolt method, to validate that piperphentonamine acetate has protective effect on experimental cerebral ischemia animal.
# [2] = system: cerebral hemorrhage in rats induced by collagenase; assay: ICH model induced by collagenase: NO in brain tissue by nitrate reductase method; assay type: in vivo, Wistar rats; conditions: 0.5 mg/kg; ICH rat brain tissue
# Excerpt: (§1) Rats in each group were anesthetized by chloral hydrate, decollated rapidly and the brain take were taken out. The brain tissue around the hole was cut and procured, weighed precisely, and made into a 10% tissue homogenate using a glass homogenizer in an ice bath environment with physiological saline as homogenized medium, the supernatant of which was taken to be determined the content of NO by nitrate reductase method.
# [3] = system: cerebral hemorrhage in rats induced by collagenase; assay: ICH model induced by collagenase: brain water content (BWC); assay type: in vivo, Wistar rats; conditions: 0.5 mg/kg iv 30 min before ICH
# Protocol: (§2) Animals are randomly divided into five groups: sham operation 24 h group; cerebral hemorrhage (Intracerebral Haemorrhage, ICH)+physiological saline group (model); ICH+piperphentonamine hydrochloride (JBTA, 2 mg/kg) group, called as high dose group (h); ICH+piperphentonamine hydrochloride (JBTA, 0.5 mg/kg) group, called as low dose group (1); ICH+nimodipine (Nim, 0.5 mg/kg) group. The last four groups are divided into 4 h, 8 h, 12 h, 24 h as four time subgroups respectively. Physiological saline solution, piperphentonamine hydrochloride and nimodipine are intravenously injected from rat tail before the ICH model is established for 30 minutes, once a day. Injecting slowly, the total amount of drug liquid is controlled in 1 ml/200 g body weight: physiological saline solution also being administered in 1 ml/200 g body weight. Each group has 7 Wistar rats.
# Observing the influence of piperphentonamine hydrochloride on the brain water content of intracerebral hemorrhage in rats in 4 h, 8 h, 12 h, 24 h, the animals of the different groups is anesthetized by chloral hydrate at predetermined time point, and decollating and taking the brain rapidly, putting the brain tissue on a filter paper wetted by saline solution to prevent water evaporating. Removing the leptomeninges and blood, cutting and taking the front half portion of brain tissue centered by the hole for the insertion needle, weighing precisely (accurate to 0.1 mg). It is controlled in 5 min to take the brain to finish weigh. Then putting in 95° C. constant temperature oven for 24 h, weighing the dry weight. The brain water content is calculated according to Blliot formula: BWC=(wet weight−dry weight)/wet weight×100%.
# (§3) Divide the animals randomly into five groups: sham operation (sham) 24 h group; ICH+normal saline group (model); ICH+piperphentonamine maleate (4 mg/kg) group, namely high dose group (h); ICH+piperphentonamine maleate (2 mg/kg) group, namely low dose group (1); ICH+nimodipine (0.5 mg/kg) group. The last four groups were divided into four time subgroup of 4 h, 8 h, 12 h and 24 h. Physiological solution, piperphentonamine maleate and nimodipine were injected intravenous from rat tail vein 30 minutes before the ICH model made, once a day. Inject slowly, the total amount of drug liquid was controlled in 1 ml/200 g body weight: normal saline was also administered in 1 ml/200 g body weight. Each group has seven Wistar rats.
# [4] = system: infectious cerebral edema of rats (pertussis bacteria liquid); assay: infectious cerebral edema: brain water content and Evans blue content, combination with nimodipine; assay type: in vivo, SD rats; conditions: JBTA pretreatment 0.5 mg/kg iv, 2 times
# Protocol: The model of infectious cerebral edema is same with example 4. It is Studied that piperphentonamine hydrochloride and a blocker for specificity L-type calcium ion channel nimodipine influence on the brain water content and Evans blue (EB) content of infectious cerebral edema, of which the purpose is to provide experimental and theoretical basis for clinical treatment.
# Each group is further divided into three time group such as 30 min, 4 h and 24 h group.
# Injecting intravenously nimodipine after injecting bacteria for 5 min (Nim group, body weight 0.25 mg/kg), 24 h nimodipine treatment group is repeatedly injected the same dose once per 8 h; nimodipine treatment group pretreated by piperphentonamine hydrochloride is intravenously infused piperphentonamine hydrochloride (0.5 mg/kg, 2 times in total) before experimenting for 48 h and 24 h, then treated with nimodipine after the pretreatment. The operation of physiological saline group being same as bacteria liquid group, is injected the same volume of physiological saline at the same time. 2% Evans blue (EB, 0.2 mL/100 g body weight) is injected from the vein of the sublingua after injecting bacteria or saline in 10 min. Each group of animal is executed by decollating after observing to the specified time, rapidly removed the brain, and remove the leptomeninges and coagulation block of the cortical surface, taking full-thickness brain tissue of the back ⅓ of left hemisphere of the brain (about 0.1˜0.2 g, including gray matter and white matter) as specimens, the water content in brain tissue and the Evans blue content are determined by the dry wet method, and brain tissue is examined by electron microscope.
# [5] = system: cerebral hemorrhage in rats induced by collagenase; assay: cerebral hemorrhage (ICH) model induced by collagenase: neurology score; assay type: in vivo, Wistar rats; conditions: 0.5 mg/kg iv 30 min before ICH
# Protocol: as §2
# The specific steps are as following: after the experimental rats are anesthetized by injecting chloral hydrate (350 mg/kg) in intraperitoneal, and being supinely immobilized in a stereotaxic instrument, and make the rat anterior fontanelle and posterior fontanelle in the same plane according to localization method reported by BAO Xinmin, etc. Being locally disinfected by iodine, incising in the midmost of scalp, scissoring the periosteum, exposing the anterior fontanelle, drilling a 1 mm diameter hole with thickness close to duramater in 3 mm left to the midline by number five needle. Inserting needle along the hole by the micro syringe fixed on a stereotaxic, the depth of needle insertion is 5.8 mm (i.e., the caudate nucleus position), slowly injecting collagenase VI 0.5 U. Injection time is 3 min, keeping for 5 min after injection, then pull the needle out, suturing the skin, and putting the rat into cage and feed. Inserting the needle and not injecting drugs in sham operation group, the remaining operations is the same as the above.
# After animals wake up, scoring nerve function defect of each group immediately according to the grading classification standards of nerve defect reported by Bedersog (litter improved).
# Choosing the animals with the score of 3 and more into the experiment, the animals are bred in different cages, eat and drink normally. Temperature is controlled in 20 to 25° C., score in 4 h, 8 h, 12 h, 24 h after establishment of the model.
# as §3
# [6] = system: cerebral hemorrhage in rats induced by collagenase; assay: ICH model induced by collagenase: NE in brain tissue by ELISA; assay type: in vivo, Wistar rats; conditions: 0.5 mg/kg; ICH rat brain tissue homogenate
# Excerpt: as §1, with “brains” for “brain take”, “NE activity using ELISA” for “content of NO by nitrate reductase”
# [7] = system: infective brain edema of rats (pertussis bacteria liquid); assay: infective cerebral edema by pertussis bacteria liquid: brain water, sodium and potassium ion content; assay type: in vivo, SD rats; set-up: Na^+ / K^+: unit not given here; conditions: pretreatment 0.5 mg/kg ip daily for 2 days; 4 h after bacterial liquid
# [8] = system: infective brain edema of rats (pertussis bacteria liquid); assay: infective cerebral edema: IL-1β, TNF-α (ELISA) and NO (Griess) in cerebral tissue; assay type: in vivo, SD rats; conditions: pretreatment 0.5 mg/kg ip daily for 2 days; rat brain tissue, 4 h
# Protocol: Determine the content of IL-1β, TNF-α and NO by using ELISA and Griess method.
# Model preparation was same as that of example 4. Piperphentonamine acetate group was intraperitoneally injected with 0.5 mg/kg daily for 2 days 48 h before the injection of pertussis bacterial liquid. Rats in each group were decollated after being injected with bacterial liquid or saline 4 h. ELISA method and Griess method were used to measure the content of IL-1β, TNF-α and NO in brain homogenate of infectious brain edema model of rats.
# [9] = system: cerebral edema of mice caused by closed cerebral trauma; assay: closed cerebral trauma model of mice, brain water content; assay type: in vivo, Kunming mice; conditions: method as example 2
# Protocol: There were 10 mice in each group.
# The closed cerebral trauma model of mice being established after fasting for 16 hours, administering intravenously to each group, striping and taking the brain of mouse after 24 hours, weighing the wet weight, and drying at 70° C. for 24 hours, then weighing the dry weight, and calculating brainwater content; the brain water content which is higher than normal values indicates the cerebral edema.
# The grouping method, administer method and model preparation were referred to example 2.
# [10] = system: cultured cerebral neurons; assay: NMDA induces neuron injury in primary cultured neurons; assay type: cell-based, rat; conditions: drug 50 mmol/L; NMDA 50 mmol/L, 12 h
# [11] = 24 h, Nim 0.25 mg/kg iv once per 8 h
compound,measurement,setting,value
"Nc1ncnc2c1ncn2[C@@H]1O[C@H](COP(=O)(O)OP(=O)(O)OP(=O)(O)O)[C@@H](O)[C@H]1O [ATP, reference compound]",The percentage of infarction area occupied the entire coronal plane (%),"[1]; 5 mg/kg, method as example 7 (example 16)",20.53 ± 4.82 %
"CC(C)(COP(=O)(O)OP(=O)(O)OC[C@H]1O[C@@H](n2cnc3c(N)ncnc32)[C@H](O)[C@@H]1OP(=O)(O)O)[C@@H](O)C(=O)NCCC(=O)NCCS [CoA, coenzyme A, reference compound]",The percentage of infarction area occupied the entire coronal plane (%),"[1]; 20 U/kg iv, ischemia 2 h, reperfusion 24 h",20.53 ± 4.82 %
"CC1=NN(c2ccccc2)C(=O)C1 [Edaravone Injection, edaravone, reference compound]",The percentage of infarction area occupied the entire coronal plane (%),"[1]; 3 mg/kg, method as example 7 (example 16)",18.43 ± 3.56 %
"COCCOC(=O)C1=C(C)NC(C)=C(C(=O)OC(C)C)C1c1cccc([N+](=O)[O-])c1 (stereo not shown) [nimodipine, reference compound]",NO,[2],2.40 ± 0.05^Δ μmol/g pro
same,brain water content (%),[3]; 4 h,79.31 ± 0.76 %
same,brain water content,"[3]; 4 h (example 12), in %",62.20 ± 0.59
same,brain water content (%),[3]; 8 h,79.95 ± 0.36^Δ** %
same,brain water content,[3]; 8 h (example 12),62.70 ±0.25^Δ**
same,brain water content (%),[3]; 12 h,81.35 ± 0.71^ΔΔ** %
same,brain water content,[3]; 12 h (example 12),63.8 ± 0.56^ΔΔ**
same,brain water content (%),[3]; 24 h,82.89 ± 0.68^ΔΔ** %
same,brain water content,[3]; 24 h (example 12),65.02 ± 0.54^ΔΔ**
same,BWC(%),"[4]; 30 min, Nim 0.25 mg/kg iv",77.26 ± 0.34 %
same,EB,"[4]; 30 min, Nim 0.25 mg/kg iv",2.0 ± 0.18 μg/g ww
same,BWC(%),"[4]; 4 h, Nim 0.25 mg/kg iv",77.15 ± 0.66 %
same,EB,"[4]; 4 h, Nim 0.25 mg/kg iv",2.65 ± 0.44 μg/g ww
same,BWC(%),[4]; [11],76.98 ± 0.50 %
same,EB,[4]; [11],2.00 ± 0.6 μg/g ww
same,neurological score,[5]; 4 h,4.5 ± 0.87
same,neurological score,[5]; 4 h (example 12),3.65 ± 0.8
same,neurological score,[5]; 8 h,4.07 ± 1.14
same,neurological score,[5]; 8 h (example 12),3.25 ± 0.91
same,neurological score,[5]; 12 h,2.57 ± 1.14
same,neurological score,[5]; 12 h (example 12),2.05 ± 0.91
same,neurological score,[5]; 24 h,1.94 ± 0.74
same,neurological score,[5]; 24 h (example 12),1.55 ± 0.59**^Δ
same,NE,[6],1.88 ± 0.035^a ng/ml
CC(=O)O.CN(CCC(=O)/C=C/c1ccc(O)cc1)CCc1ccc2c(c1)OCO2 [piperphentonamine acetate],K^+,[7],396.6 ± 39.9
same,Na^+,[7],164.7 ± 23.7
same,brain water content (%),[7],63.44 ± 0.4^3) %
same,The percentage of infarction area occupied the entire coronal plane (%),"[1]; 4 mg/kg, thread bolt method (example 15)",18.12 ± 2.64^ΔΔ %
same,IL-1β,[8],197.1 ± 27.1^2)3) pg/g
same,NO,[8],53.3 ± 3.71^2)3) nmol/g
same,TNF-α,[8],309.3 ± 83.5^2)3) pg/g
CN(CCC(=O)/C=C/c1ccc(O)cc1)CCc1ccc2c(c1)OCO2.O=C(O)CC(O)(CC(=O)O)C(=O)O [piperphentonamine citrate],The percentage of infarction area occupied the entire coronal plane (%),"[1]; treated group (C), dose not given, model as example 7",16.88 ± 2.48**^ΔΔ %
same,brain water content (%),[9]; 2 mg/kg,80.32 ± 7.72 %
same,brain water content (%),[9]; 4 mg/kg,78.84 ± 9.48 %
same,brain water content (%),[9]; 8 mg/kg,75.28 ± 6.48 %
"Ganglioside [GM, reference compound]",morphological change of culture neuron (protection function),[10],equal to the one of piperphentonamine hydrochloride 10 mmol/L
same,mortality,[10],40%
